Experimental data reported in patent publication US11857638B2, “Quinone-containing conjugates” (PROMEGA CORPORATION, priority 2018, dated 2024).

What was measured:
human diaphorase = human diaphorase (Homo sapiens, UniProt P15559); assay: Non-cellular reductive release of luciferin (luciferin detection reagent with reductase and NADH); assay type: biochemical; details: after 1 hour, FIG. 3
From the text: (§1) This property may provide an additional advantage in ADCs where it is critical that payload is not released outside of target cells. The observations are as follows. When D-luciferin is derivatized on the 6′ hydroxyl by addition of the TMQ linker, its activity as a substrate for luciferase is blocked (PBI-4312), but free D-luciferin that is fully active with luciferase is readily released
[drawing 143] from a luciferin-TMQ derivative when subjected to reducing conditions inside or outside of a cell. However, release of D-luciferin from a protein-TMQ-luciferin conjugate by an extracellular reductive mechanism was substantially diminished compared to luciferin-TMQ. In other words, the protein moiety of the conjugate stabilizes the luciferin payload against reductive release from the TMQ linker in a non-cellular environment. Non-cellular reducing conditions include an aqueous reducing agent solution (e.g. DTT) or a reductase reaction mixture (FIG. 3). This was true for two conjugates with a luciferin payload as well as a luciferin-TMQ conjugate with bovine serum albumin (BSA). Whereas the reaction conditions produced substantial amounts of light with PBI-4312 (>900,000 RLU after 1 hour), only minimal signals were produced from similar amounts of the protein conjugates (<800 RLUs after 1 hour). […]

luciferase = assay: Activity as a substrate for luciferase; assay type: biochemical; details: D-luciferin derivatized on the 6′ hydroxyl with TMQ linker
From the text: as §1

Chain of human diaphorase (P15559 whole entry): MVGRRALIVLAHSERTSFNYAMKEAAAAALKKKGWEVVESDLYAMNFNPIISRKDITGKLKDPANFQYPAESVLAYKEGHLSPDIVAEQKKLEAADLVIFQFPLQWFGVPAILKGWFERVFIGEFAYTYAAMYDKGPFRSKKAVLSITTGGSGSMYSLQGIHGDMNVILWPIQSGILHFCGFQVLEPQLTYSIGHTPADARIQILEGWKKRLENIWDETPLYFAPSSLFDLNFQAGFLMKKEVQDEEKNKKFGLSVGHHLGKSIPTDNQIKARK

Compound: CC1=C(C)C(=O)C(C(C)(C)CC(=O)N(C)CCN(C)C(=O)Oc2ccc3nc(C4=N[C@@H](C(=O)O)CS4)sc3c2)=C(C)C1=O [PBI-4312]
- light produced (luciferin luminescence) (human diaphorase): > 900,000 RLU
- activity as a substrate for luciferase (luciferase): blocked
